Patent publication US5428038A, “Benzopyranones, a method for producing them and uses therefor” (Dr. Willmar Schwabe GmbH & Co., priority 1991, dated 1995)

Test system: NMDA-induced death
Test: NMDA test (25 mg/kg i.v.), prevention of NMDA-induced death (neuroprotective efficacy)
Assay type: in vivo, male NMRI mice
Settings: Mus musculus, po, NMDA 25 mg/kg i.v.; for responders at 50 mg/kg: 50 mg/kg p.o. 1 h before test; for responders at 50 mg/kg / responders at 100 mg/kg / responders at 25 mg/kg / responders at 5 mg/kg: read-out: Protective action (percentage of surviving animals); for responders at 100 mg/kg: 100 mg/kg p.o. 1 h before test; for responders at 25 mg/kg: 25 mg/kg p.o. 1 h before test; for responders at 5 mg/kg: 5 mg/kg p.o. 1 h before test; for ED50: 1 h, dose protecting 50% of animals against NMDA-induced death one hour after application
Procedure: In order to determine the neuroprotective and anticonvulsive activity of the compounds in accordance with the invention of the general formula I, two slightly different methods were employed as follows: […]
1. In order to determine the neuroprotective efficacy NMDA at a rate of 25 mg/kg/10 ml was administered intravenously to male NMRI mice with a body weight of 20 to 25 g. As a consequence of this application the animals suffer clonic and partly tonic convulsions, which lead to death. As a criterion for the efficacy of the investigated compounds prevention of death is used.
All animals used in the investigations had free access to food and water prior to the experiments. The test and reference substances were all administered as a suspension in 0.2% agar or water, partly by the intermediary of solution promoters such as for instance PEG-400, perorally using an esophageal probe. Control animals received the same volumes of the solvent with optional solution promoters. One hour after the application of the substance NMDA was administered intravenously and the animals observed for the occurrence of convulsions.
In table 1 the results of the tests (NMDA 25 mg i.v.) performed in accordance with method 1 are compiled with dosages of 5-100 mg of the compounds in accordance with the invention per kg of body weight as compared with known NMDA-antagonists. As a percentage efficacy the percentage of surviving animals is used.
The determination of the ED50 values was performed in accordance with the method described in Lichtfield and Wilcoxon, J. Pharmacol. exp. Therapeut. 96, 99 (1949) in each case with 4 to 5 groups of 10 animals per dosage rate.

COc1cc2oc(=O)ccc2cc1OCC(O)CN1CCN(c2cccc(C(F)(F)F)c2)CC1 (racemic) [Example 20, (±)-6-{2-hydroxy-3-[4-(3-trifluoromethylphenyl)-1-piperazinyl]propoxy}-7-methoxy-2H-1-benzopyran-2-one]
responders at 50 mg/kg: 87.5%

COc1cc2ccc(=O)oc2cc1OCC(O)CN1CCN(c2cccc(C(F)(F)F)c2)CC1 (racemic) [Example 21, (±)-7-{2-hydroxy-3-[4-(3-trifluoromethylphenyl)-1-piperazinyl]propoxy}-6-methoxy-2H-1-benzopyran-2-one]
responders at 50 mg/kg: 62.5%

COc1cc2oc(=O)ccc2cc1OCC(O)CN1CCC(c2ccccc2)CC1 (racemic) [Example 22, (±)-6-[2-hydroxy-3-(4-phenyl-1-piperidinyl)-propoxy]-7-methoxy-2H-1-benzopyran-2-one]
responders at 100 mg/kg: 37.5%

COc1cc2oc(=O)ccc2cc1OCC(O)CN1CCC(O)(c2ccccc2)CC1 (racemic) [Example 24, (±)-6-[2-hydroxy-3-(4-hydroxy-4-phenyl-1-piperidinyl)propoxy]-7-methoxy-2H-1-benzopyran-2-one]
responders at 100 mg/kg: 37.5%

COc1cc2oc(=O)ccc2cc1OCCCN1CCN(c2ccccc2)CC1 [Example 1, 7-methoxy-6-[3-(4-phenyl-1-piperazinyl)propoxy]-2H-1-benzopyran-2-one]
responders at 25 mg/kg: 100%

COc1cc2ccc(=O)oc2cc1OCCCN1CCN(c2ccccc2)CC1 [Example 2, 6-methoxy-7-[3-(4-phenyl-1-piperazinyl)propoxy]-2H-1-benzopyran-2-one]
responders at 25 mg/kg: 100%

CCOc1cc2oc(=O)ccc2cc1OCCCN1CCN(c2ccccc2)CC1 [Example 3, 7-ethoxy-6-[3-(4-phenyl-1-piperazinyl)propoxy]-2H-1-benzopyran-2-one]
responders at 5 mg/kg: 62.5%

O=c1ccc2cc(OC3CCCC3)c(OCCCN3CCN(c4ccccc4)CC3)cc2o1 [Example 5, 6-(cyclopentyloxy)-7-[3-(4-phenyl-1-piperazinyl)propoxy]-2H-1-benzopyran-2-one]
responders at 25 mg/kg: 87.5%

CCOc1cc2oc(=O)ccc2cc1OCCCN1CCN(c2ccccc2OC)CC1 [Example 7, 7-ethoxy-6-{3-[4-(2-methoxyphenyl)-1-piperazinyl]propoxy}-2H-1-benzopyran-2-one]
ED50: 0.9 mg/kg | responders at 5 mg/kg: 100%

COc1cc2oc(=O)ccc2cc1OCCCN1CCC(c2ccccc2)CC1 [Example 9, 7-methoxy-6-[3-(4-phenyl-1-piperidinyl)propoxy]-2H-1-benzopyran-2-one]
responders at 25 mg/kg: 50%

CCOc1cc2ccc(=O)oc2cc1OCCCN1CCC(c2ccccc2)CC1 [Example 11, 6-ethoxy-7-[3-(4-phenyl-1-piperidinyl)propoxy]-2H-1-benzopyran-2-one]
responders at 25 mg/kg: 62.5%

O=c1ccc2cc(OC3CCCC3)c(OCCCN3CCC(c4ccccc4)CC3)cc2o1 [Example 13, 6-(cyclopentyloxy)-7-[3-(4-phenyl-1-piperidinyl)propoxy]-2H-1-benzopyran-2-one]
responders at 25 mg/kg: 100%

COc1cc2oc(=O)c(C)c(C)c2cc1OCCCN1CCC(c2ccccc2)CC1 [Example 29, 7-methoxy-3,4-dimethyl-6-[3-(4-phenyl-1-piperidinyl)propoxy]-2H-1-benzopyran-2-one]
responders at 25 mg/kg: 87.5%

COc1cc2oc(=O)c(C)c(C)c2cc1OCCCN1CCN(Cc2ccc(Cl)cc2)CC1 [Example 30, 6-{3-[4-(4-chlorophenylmethyl)-1-piperazinyl]-propoxy}-7-methoxy-3,4-dimethyl-2H-1-benzopyran-2-one]
responders at 100 mg/kg: 37.5%

COc1cc2oc(=O)cc(C(F)(F)F)c2cc1OCCCN1CCN(c2ccccc2)CC1 [Example 31]
responders at 25 mg/kg: 87.5%

COc1cc2oc(=O)cc(C(F)(F)F)c2cc1OCCCN1CCC(c2ccccc2)CC1 [Example 32, 7-methoxy-6-[3-(4-phenyl-1-piperidinyl)propoxy]-4-(trifluoromethyl)-2H-1-benzopyran-2-one]
responders at 25 mg/kg: 62.5%

CCCc1cc(=O)oc2cc(OC)c(OCCCN3CCN(c4ccccc4)CC3)cc12 [Example 33]
ED50: 4.4 mg/kg | responders at 25 mg/kg: 100%

CCCc1cc(=O)oc2cc(OC)c(OCCCN3CCC(c4ccccc4)CC3)cc12 [Example 34, 7-methoxy-6-[3-(4-phenyl-1-piperidinyl)propoxy]-4-propyl-2H-1-benzopyran-2-one]
responders at 25 mg/kg: 75%

COc1cc2oc(=O)cc(C(C)C)c2cc1OCCCN1CCN(c2ccccc2)CC1 [Example 35, 7-methoxy-4-(1-methylethyl)-6-[3-(4-phenyl-1-piperazinyl)propoxy]-2H-1-benzopyran-2-one]
responders at 5 mg/kg: 75%

COc1cc2oc(=O)cc(C(C)C)c2cc1OCCCN1CCC(c2ccccc2)CC1 [Example 36, 7-methoxy-4-(1-methylethyl)-6-[3-(4-phenyl-1-piperidinyl)propoxy]-2H-1-benzopyran-2-one]
responders at 25 mg/kg: 50%

CCCCc1c(C)c2cc(OCCCN3CCN(c4ccccc4)CC3)c(OC)cc2oc1=O [Example 37, 3-butyl-7-methoxy-4-methyl-6-[3-(4-phenyl-1-piperazinyl)propoxy]-2H-1-benzopyran-2-one]
responders at 25 mg/kg: 100%

CCCCc1c(C)c2cc(OCCCN3CCC(c4ccccc4)CC3)c(OC)cc2oc1=O [Example 38, 3-butyl-7-methoxy-4-methyl-6-[3-(4-phenyl-1-piperidinyl)propoxy]-2H-1-benzopyran-2-one]
responders at 25 mg/kg: 87.5%

COc1cc2oc(=O)c(-c3ccccc3)c(C)c2cc1OCCCN1CCN(c2ccccc2)CC1 [Example 41, 7-methoxy-4-methyl-3-phenyl-6-[3-(4-phenyl-1-piperazinyl)propoxy]-2H-1-benzopyran-2-one]
ED50: 4.8 mg/kg | responders at 5 mg/kg: 87.5%

COc1cc2oc(=O)c3c(c2cc1OCCN1CCN(c2ccccc2)CC1)CCC3 [Example 44, 2,3-dihydro-7-methoxy-8-[2-(4-phenyl-1-piperazinyl)ethoxy]cyclopenta[c][1]benzopyran-4(1H)-one]
ED50: 4.8 mg/kg | responders at 25 mg/kg: 87.5%

COc1cc2oc(=O)c3c(c2cc1OCCCCCN1CCN(c2ccccc2)CC1)CCC3 [Example 47, 2,3-dihydro-7-methoxy-8-[5-(4-phenyl-1-piperazinyl)pentyloxy]cyclopenta[c][1]benzopyran-4(1H)-one]
responders at 5 mg/kg: 62.5%

COc1cc2oc(=O)c3c(c2cc1OCCCCN1CCC(c2ccccc2)CC1)CCC3 [Example 50, 2,3-dihydro-7-methoxy-8-[4-(4-phenyl-1-piperidinyl)butyloxy]cyclopenta[c][1]benzopyran-4(1H)-one]
responders at 25 mg/kg: 87.5%

COc1cc2oc(=O)c3c(c2cc1OCCCCCN1CCC(c2ccccc2)CC1)CCC3 [Example 51, 2,3-dihydro-7-methoxy-8-[5-(4-phenyl-1-piperidinyl)pentyloxy]cyclopenta[c][1]benzopyran-4(1H)-one]
responders at 5 mg/kg: 12.5%

COc1cc2oc(=O)c3c(c2cc1OCCCN1CCN(c2cccc(C)c2C)CC1)CCC3 [Example 53, 8-{3-[4-(2,3-dimethylphenyl)-1-piperazinyl]propoxy}-2,3-dihydro-7-methoxy-cyclopenta[c][1]benzopyran-4(1H)-one]
responders at 25 mg/kg: 50%

COc1cc2oc(=O)c3c(c2cc1OCCCN1CCN(c2ccccc2OC)CC1)CCC3 [Example 54, 2,3-dihydro-7-methoxy-8-{3-[4-(2-methoxyphenyl)-1-piperazinyl]propoxy}cyclopenta[c][1]benzopyran-4(1H)-one]
ED50: 0.4 mg/kg | responders at 5 mg/kg: 100%

COc1cccc(N2CCN(CCCOc3cc4c5c(c(=O)oc4cc3OC)CCC5)CC2)c1 [Example 55, 2,3-dihydro-7-methoxy-8-{3-[4-(3-methoxyphenyl)-1-piperazinyl]propoxy}cyclopenta[c][1]benzopyran-4(1H)-one]
ED50: 1.1 mg/kg | responders at 5 mg/kg: 100%

COc1ccc(N2CCN(CCCOc3cc4c5c(c(=O)oc4cc3OC)CCC5)CC2)cc1 [Example 56, 2,3-dihydro-7-methoxy-8-{3-[4-(4-methoxyphenyl)-1-piperazinyl]propoxy}cyclopenta[c][1]benzopyran-4(1H)-one]
ED50: 2.6 mg/kg | responders at 5 mg/kg: 87.5%

CCOc1ccccc1N1CCN(CCCOc2cc3c4c(c(=O)oc3cc2OC)CCC4)CC1 [Example 57, 8-{3-[4-(2-ethoxyphenyl)-1-piperazinyl]propoxy}-2,3-dihydro-7-methoxy-cyclopenta[c][1]benzopyran-4(1H)-one]
responders at 5 mg/kg: 100%

COc1cc2oc(=O)c3c(c2cc1OCCCN1CCN(c2ccccc2Cl)CC1)CCC3 [Example 58, 8-{3-[4-(2-chlorophenyl)-1-piperazinyl]propoxy}-2,3-dihydro-7-methoxy-cyclopenta[c][1]benzopyran-4(1H)-one]
ED50: 1.8 mg/kg | responders at 5 mg/kg: 100%
